Results as given in patent US20250353891A1 (MEDIMMUNE LIMITED, priority 2022, published 2025).
Starred links: 1 amine or outer side, 2 acyl side, 3 side chain; linkers in the order of their positions; H or OH if unused. Non-standard residues stand in square brackets, D forms with d. Residues, ends and D or L forms follow the SMILES beside them. Groups on a side chain read outwards from the residue. *: point of attachment. PEG12 = NCCOCCOCCOCCOCCOCCOCCOCCOCCOCCOCCOCCOCCC(=O)O; C18 diacid = O=C(O)CCCCCCCCCCCCCCCCC(=O)*; PEG8 = NCCOCCOCCOCCOCCOCCOCCOCCOCCC(=O)O; Dip = N[C@H](C(=O)O)C(c1ccccc1)c1ccccc1; γGlu = O=C(O)[C@H](CCC(=O)[*:2])N[*:1]; Stearoyl = CCCCCCCCCCCCCCCCCC(=O)*; αMeF = C[C@](N)(Cc1ccccc1)C(=O)O; PEG4 = NCCOCCOCCOCCOCCC(=O)O; PEG2 = NCCOCCOCCC(=O)O; AEEA = NCCOCCOCC(=O)O; Aib = CC(C)(N)C(=O)O

Legend:
[1] = target: human GLP-1 receptor (hGLP-1R) (Homo sapiens, UniProt P43220); assay: cAMP production (HTRF) in CHO cells expressing hGLP-1R; format: cell-based; set-up: expressed in transfected cells; conditions: for EC50: Table 6, peptides modified at position 17, cAMP in CHO hGLP-1R cells, geometric mean, read-out: hGLP-1R EC50; for % Relative Potency Ratio: Table 6, % GLP-1R activity relative to GLP-1 / % GlucR activity relative to glucagon
Chain of human GLP-1 receptor (hGLP-1R) (P43220 24-463): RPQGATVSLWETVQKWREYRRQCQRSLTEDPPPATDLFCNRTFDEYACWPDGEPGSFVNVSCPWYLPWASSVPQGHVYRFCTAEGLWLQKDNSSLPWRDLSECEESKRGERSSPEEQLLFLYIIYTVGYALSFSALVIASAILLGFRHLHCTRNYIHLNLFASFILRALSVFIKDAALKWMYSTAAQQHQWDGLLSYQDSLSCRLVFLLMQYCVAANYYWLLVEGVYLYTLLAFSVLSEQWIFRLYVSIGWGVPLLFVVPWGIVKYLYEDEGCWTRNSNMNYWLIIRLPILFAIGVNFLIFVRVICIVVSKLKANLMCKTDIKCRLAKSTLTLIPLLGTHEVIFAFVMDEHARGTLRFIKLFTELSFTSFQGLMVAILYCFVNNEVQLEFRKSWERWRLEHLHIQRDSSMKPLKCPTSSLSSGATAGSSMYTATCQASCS
Procedure, shortened: (§1)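 Read-out: HTRF cAMP (anti-cAMP cryptate donor, cAMP-d2 acceptor in conjugate/lysis buffer), converted to % Delta F and fitted by 4-parameter logistic for EC50. Cell densities were 1×10^5 cells/mL (hGLP-1R) or 2×10^5 cells/mL (hGCGR). Stimulation lasted 30 min at room temperature.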

[2] = target: human glucagon receptor (hGCGR) (Homo sapiens, UniProt P47871); assay: cAMP production (HTRF) in CHO cells expressing hGCGR; format: cell-based; set-up: expressed in transfected cells; conditions: Table 6, peptides modified at position 17; cAMP in CHO hGCGR cells; geometric mean; read-out: hGluc-R EC50
Chain of human glucagon receptor (hGCGR) (P47871 26-477): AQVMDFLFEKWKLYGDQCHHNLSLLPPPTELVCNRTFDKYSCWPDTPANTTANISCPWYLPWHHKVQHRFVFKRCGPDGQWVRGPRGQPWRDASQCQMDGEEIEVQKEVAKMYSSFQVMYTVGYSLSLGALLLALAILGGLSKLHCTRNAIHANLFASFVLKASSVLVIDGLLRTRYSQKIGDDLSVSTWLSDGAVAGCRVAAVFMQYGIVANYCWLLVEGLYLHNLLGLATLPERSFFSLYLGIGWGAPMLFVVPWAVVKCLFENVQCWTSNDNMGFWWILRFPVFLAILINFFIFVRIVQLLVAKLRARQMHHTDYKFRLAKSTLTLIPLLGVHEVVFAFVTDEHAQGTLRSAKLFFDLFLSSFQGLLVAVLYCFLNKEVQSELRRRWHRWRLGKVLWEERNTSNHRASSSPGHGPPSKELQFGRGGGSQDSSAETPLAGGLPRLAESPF
Procedure, shortened: as §1

Row | SMILES | EC50 [1] [nM] | % Relative Potency Ratio [1] | EC50 [2] [nM]
1 | CC(C)C[C@H](NC(=O)C(C)(C)NC(=O)[C@H](CCC(N)=O)NC(=O)[C@@H](NC(=O)[C@H](Cc1ccccc1)NC(=O)[C@H](CC(=O)O)NC(=O)[C@H](CCC(N)=O)NC(=O)[C@H](C)NC(=O)[C@H](CCCNC(=N)N)NC(=O)[C@H](CCCCNC(=O)COCCOCCNC(=O)COCCOCCNC(=O)CC[C@H](NC(=O)CCCCCCCCCCCCCCCCC(=O)O)C(=O)O)NC(=O)[C@H](CO)NC(=O)[C@H](CC(=O)O)NC(=O)[C@H](CC(C)C)NC(=O)[C@](C)(Cc1ccccc1)NC(=O)[C@H](CCCCN)NC(=O)[C@H](CO)NC(=O)[C@@H](NC(=O)[C@H](CC(=O)O)NC(=O)[C@H](CO)NC(=O)[C@@H](NC(=O)[C@H](Cc1ccccc1)NC(=O)[C@@H](NC(=O)CNC(=O)[C@H](CCC(N)=O)NC(=O)C(C)(C)NC(=O)[C@@H](N)Cc1c[nH]cn1)[C@@H](C)O)[C@@H](C)O)C(C)C)C(C)C)C(=O)N[C@H](C(=O)N[C@@H](C)C(=O)N[C@H](C(=O)O)[C@@H](C)O)C(C)C [Peptide 42] (H-H[Aib]QGTFTSDVSK[αMeF]LDSK([AEEA-AEEA-γGlu-C18 diacid])RAQDFVQ[Aib]LVAT-OH; N-terminus assumed) | 0.665 | 24.4 | 8.19
2 | CCCCCCCCCCCCCCCCCC(=O)N[C@@H](CCC(=O)N[C@@H](CCC(=O)NCCOCCOCCC(=O)NCCOCCOCCC(=O)NCCCC[C@H](NC(=O)[C@H](CO)NC(=O)[C@H](CC(=O)O)NC(=O)[C@H](CC(C)C)NC(=O)[C@@H](NC(=O)[C@H](CCCCN)NC(=O)[C@H](CO)NC(=O)[C@@H](NC(=O)[C@H](CC(=O)O)NC(=O)[C@H](CO)NC(=O)[C@@H](NC(=O)[C@](C)(Cc1ccccc1)NC(=O)[C@H](CO)NC(=O)CNC(=O)[C@H](CCC(N)=O)NC(=O)[C@H](CO)NC(=O)[C@@H](N)Cc1c[nH]cn1)[C@@H](C)O)C(C)C)C(c1ccccc1)c1ccccc1)C(=O)N[C@@H](C)C(=O)N[C@@H](C)C(=O)N[C@@H](CCC(N)=O)C(=O)N[C@@H](CC(=O)O)C(=O)N[C@@](C)(Cc1ccccc1)C(=O)N[C@H](C(=O)N[C@@H](CCC(N)=O)C(=O)N[C@H](C(=O)N[C@@H](CC(C)C)C(=O)N[C@@H](CCC(=O)O)C(=O)N[C@@H](C)C(N)=O)C(c1ccccc1)c1ccccc1)C(C)C)C(=O)O)C(=O)O [Peptide 55] (H-HSQGS[αMeF]TSDVSK[Dip]LDSK([PEG2-PEG2-γGlu-γGlu-Stearoyl])AAQD[αMeF]VQ[Dip]LEA-NH2; N-terminus assumed) | 0.0188 | 2.0 | 0.0191
3 | CCCCCCCCCCCCCCCCCC(=O)N[C@@H](CCC(=O)N[C@@H](CCC(=O)NCCOCCOCCOCCOCCOCCOCCOCCOCCC(=O)NCCCC[C@H](NC(=O)[C@H](CO)NC(=O)[C@H](CC(=O)O)NC(=O)[C@H](CC(C)C)NC(=O)[C@@H](NC(=O)[C@H](CCCCN)NC(=O)[C@H](CO)NC(=O)[C@@H](NC(=O)[C@H](CC(=O)O)NC(=O)[C@H](CO)NC(=O)[C@@H](NC(=O)[C@](C)(Cc1ccccc1)NC(=O)[C@H](CO)NC(=O)CNC(=O)[C@H](CCC(N)=O)NC(=O)[C@H](CO)NC(=O)[C@@H](N)Cc1c[nH]cn1)[C@@H](C)O)C(C)C)C(c1ccccc1)c1ccccc1)C(=O)N[C@@H](C)C(=O)N[C@@H](C)C(=O)N[C@@H](CCC(N)=O)C(=O)N[C@@H](CC(=O)O)C(=O)N[C@@](C)(Cc1ccccc1)C(=O)N[C@H](C(=O)N[C@@H](CCC(=O)O)C(=O)NC(C)(C)C(=O)N[C@H](C(=O)N[C@H](C(=O)N[C@@H](CC(N)=O)C(=O)N[C@H](C(N)=O)[C@@H](C)O)[C@@H](C)CC)[C@@H](C)CC)C(C)C)C(=O)O)C(=O)O [Peptide 57] (H-HSQGS[αMeF]TSDVSK[Dip]LDSK([PEG8-γGlu-γGlu-Stearoyl])AAQD[αMeF]VE[Aib]IINT-NH2; N-terminus assumed) | 0.00909 | 3.7 | 0.0169
4 | CCCCCCCCCCCCCCCCCC(=O)N[C@@H](CCC(=O)N[C@@H](CCC(=O)NCCOCCOCCOCCOCCOCCOCCOCCOCCOCCOCCOCCOCCC(=O)NCCCC[C@H](NC(=O)[C@H](CO)NC(=O)[C@H](CC(=O)O)NC(=O)[C@H](CC(C)C)NC(=O)[C@@H](NC(=O)[C@H](CCCCN)NC(=O)[C@H](CO)NC(=O)[C@@H](NC(=O)[C@H](CC(=O)O)NC(=O)[C@H](CO)NC(=O)[C@@H](NC(=O)[C@](C)(Cc1ccccc1)NC(=O)[C@H](CO)NC(=O)CNC(=O)[C@H](CCC(N)=O)NC(=O)[C@H](CO)NC(=O)[C@@H](N)Cc1c[nH]cn1)[C@@H](C)O)C(C)C)C(c1ccccc1)c1ccccc1)C(=O)N[C@@H](C)C(=O)N[C@@H](C)C(=O)N[C@@H](CCC(N)=O)C(=O)N[C@@H](CC(=O)O)C(=O)N[C@@](C)(Cc1ccccc1)C(=O)N[C@H](C(=O)N[C@@H](CCC(=O)O)C(=O)NC(C)(C)C(=O)N[C@H](C(=O)N[C@H](C(=O)N[C@@H](CC(N)=O)C(=O)N[C@H](C(N)=O)[C@@H](C)O)[C@@H](C)CC)[C@@H](C)CC)C(C)C)C(=O)O)C(=O)O [Peptide 58] (H-HSQGS[αMeF]TSDVSK[Dip]LDSK([PEG12-γGlu-γGlu-Stearoyl])AAQD[αMeF]VE[Aib]IINT-NH2; N-terminus assumed) | 0.0039 | 5.7 | 0.0113

Next, values leading:

Row | EC50 [1] [nM] | % Relative Potency Ratio [1] | EC50 [2] [nM] | SMILES
5 | 0.00281 | 1.8 | 0.00259 | CCCCCCCCCCCCCCCCCC(=O)N[C@@H](CCC(=O)N[C@@H](CCC(=O)NCCOCCOCCC(=O)NCCOCCOCCC(=O)NCCCC[C@H](NC(=O)[C@H](CO)NC(=O)[C@H](CC(=O)O)NC(=O)[C@H](CC(C)C)NC(=O)[C@@H](NC(=O)[C@H](CCCCN)NC(=O)[C@H](CO)NC(=O)[C@@H](NC(=O)[C@H](CC(=O)O)NC(=O)[C@H](CO)NC(=O)[C@@H](NC(=O)[C@](C)(Cc1ccccc1)NC(=O)[C@H](CO)NC(=O)CNC(=O)[C@H](CCC(N)=O)NC(=O)[C@H](CO)NC(=O)[C@@H](N)Cc1c[nH]cn1)[C@@H](C)O)C(C)C)C(c1ccccc1)c1ccccc1)C(=O)N[C@@H](C)C(=O)N[C@@H](C)C(=O)N[C@@H](CCC(N)=O)C(=O)N[C@@H](CC(=O)O)C(=O)N[C@@](C)(Cc1ccccc1)C(=O)N[C@H](C(=O)N[C@@H](CCC(N)=O)C(=O)NC(C)(C)C(=O)N[C@H](C(=O)N[C@@H](C)C(=O)N[C@@H](CC(N)=O)C(N)=O)[C@@H](C)CC)C(C)C)C(=O)O)C(=O)O [Peptide 54] (H-HSQGS[αMeF]TSDVSK[Dip]LDSK([PEG2-PEG2-γGlu-γGlu-Stearoyl])AAQD[αMeF]VQ[Aib]IAN-NH2; N-terminus assumed)
6 | 0.00486 | 4.4 | 0.0109 | CCCCCCCCCCCCCCCCCC(=O)N[C@@H](CCC(=O)N[C@@H](CCC(=O)NCCOCCOCCOCCOCCC(=O)NCCCC[C@H](NC(=O)[C@H](CO)NC(=O)[C@H](CC(=O)O)NC(=O)[C@H](CC(C)C)NC(=O)[C@@H](NC(=O)[C@H](CCCCN)NC(=O)[C@H](CO)NC(=O)[C@@H](NC(=O)[C@H](CC(=O)O)NC(=O)[C@H](CO)NC(=O)[C@@H](NC(=O)[C@](C)(Cc1ccccc1)NC(=O)[C@H](CO)NC(=O)CNC(=O)[C@H](CCC(N)=O)NC(=O)[C@H](CO)NC(=O)[C@@H](N)Cc1c[nH]cn1)[C@@H](C)O)C(C)C)C(c1ccccc1)c1ccccc1)C(=O)N[C@@H](C)C(=O)N[C@@H](C)C(=O)N[C@@H](CCC(N)=O)C(=O)N[C@@H](CC(=O)O)C(=O)N[C@@](C)(Cc1ccccc1)C(=O)N[C@H](C(=O)N[C@@H](CCC(=O)O)C(=O)NC(C)(C)C(=O)N[C@H](C(=O)N[C@H](C(=O)N[C@@H](CC(N)=O)C(=O)N[C@H](C(N)=O)[C@@H](C)O)[C@@H](C)CC)[C@@H](C)CC)C(C)C)C(=O)O)C(=O)O [Peptide 56] (H-HSQGS[αMeF]TSDVSK[Dip]LDSK([PEG4-γGlu-γGlu-Stearoyl])AAQD[αMeF]VE[Aib]IINT-NH2; N-terminus assumed)
7 | 0.00618 | 9.1 | 0.0284 | CCCCCCCCCCCCCCCCCC(=O)NCCOCCOCCC(=O)NCCOCCOCCC(=O)N[C@@H](CCC(=O)N[C@@H](CCC(=O)NCCCC[C@H](NC(=O)[C@H](CO)NC(=O)[C@H](CC(=O)O)NC(=O)[C@H](CC(C)C)NC(=O)[C@@H](NC(=O)[C@H](CCCCN)NC(=O)[C@H](CO)NC(=O)[C@@H](NC(=O)[C@H](CC(=O)O)NC(=O)[C@H](CO)NC(=O)[C@@H](NC(=O)[C@](C)(Cc1ccccc1)NC(=O)[C@H](CO)NC(=O)CNC(=O)[C@H](CCC(N)=O)NC(=O)[C@H](CO)NC(=O)[C@@H](N)Cc1c[nH]cn1)[C@@H](C)O)C(C)C)C(c1ccccc1)c1ccccc1)C(=O)N[C@@H](C)C(=O)N[C@@H](C)C(=O)N[C@@H](CCC(N)=O)C(=O)N[C@@H](CC(=O)O)C(=O)N[C@@](C)(Cc1ccccc1)C(=O)N[C@H](C(=O)N[C@@H](CCC(=O)O)C(=O)NC(C)(C)C(=O)N[C@H](C(=O)N[C@H](C(=O)N[C@@H](CC(N)=O)C(=O)N[C@H](C(N)=O)[C@@H](C)O)[C@@H](C)CC)[C@@H](C)CC)C(C)C)C(=O)O)C(=O)O [Peptide 59] (H-HSQGS[αMeF]TSDVSK[Dip]LDSK([γGlu-γGlu-PEG2-PEG2-Stearoyl])AAQD[αMeF]VE[Aib]IINT-NH2; N-terminus assumed)
